Laboratory results reported in PubChem BioAssay (NCI).
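Each compound was tested at five concentrations against cells in 96-well plates for 48 hours. The concentration for 50% growth inhibition is given as GI50. TGI is the concentration that stops growth completely.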

What was measured:
Assay in all cases: growth of human tumour cells (NCI), 48 h
K-562 leukemia = tested on: K-562 leukemia
T-47D breast = tested on: T-47D breast
OVCAR-4 ovarian = tested on: OVCAR-4 ovarian
NCI-H23 lung = tested on: NCI-H23 lung
SW-620 colon = tested on: SW-620 colon
UO-31 renal = tested on: UO-31 renal
RXF 393 renal = tested on: RXF 393 renal
786-0 renal = tested on: 786-0 renal
HCT-15 colon = tested on: HCT-15 colon
MCF7 breast = tested on: MCF7 breast

Row | Structure (SMILES) | TGI (K-562 leukemia) | TGI (T-47D breast) | TGI (OVCAR-4 ovarian) | TGI (NCI-H23 lung) | TGI (SW-620 colon) | TGI (UO-31 renal) | TGI (RXF 393 renal) | TGI (786-0 renal) | TGI (HCT-15 colon) | TGI (MCF7 breast) | GI50 (MCF7 breast) | GI50 (K-562 leukemia) | GI50 (T-47D breast) | GI50 (OVCAR-4 ovarian) | GI50 (NCI-H23 lung) | GI50 (SW-620 colon) | GI50 (HCT-15 colon)
1 | Cc1ccc(C2(c3ccc(C)c(O)c3C)CCN(C)CC2)c(C)c1O | > 100 µM | > 100 µM | > 100 µM | > 100 µM | > 100 µM | > 100 µM | > 100 µM | > 100 µM | > 100 µM |  |  |  |  |  |  |  | 
2 | C/C(=N\NC(=O)N/N=C(\C)c1ccccn1)c1ccccn1 |  | > 100 µM | > 100 µM |  | > 100 µM | > 100 µM | > 100 µM | > 51.5 µM | > 100 µM | > 100 µM |  |  |  |  |  |  | 
3 | Clc1ccc(-c2nn3c(C45CC6CC(CC(C6)C4)C5)nnc3s2)cc1 | > 100 µM | > 100 µM | > 100 µM | > 100 µM | > 100 µM | > 100 µM | > 100 µM | > 100 µM | > 100 µM |  |  |  |  |  |  |  | 
4 | Cc1ccc(CC(=O)Nc2ccc(NC(=O)CNC(=O)/C=C/c3ccc(-c4ccccc4)cc3)cc2C(=O)c2ccccc2)cc1 | 10.3 µM | 3.89 µM |  | 4.71 µM | 19.5 µM | 24.7 µM | 6.6 µM | 5.48 µM | 13.2 µM | 3.69 µM |  |  |  |  |  |  | 
5 | CC1CN=C(N(C)C(=O)Nc2ccc(Cl)c(Cl)c2)S1 (stereo not given) | > 100 µM | > 100 µM | > 100 µM | > 100 µM | > 100 µM | > 100 µM |  | > 100 µM | 91.5 µM | 59.7 µM |  |  |  |  |  |  | 
6 | CC(C)=CCC/C(C)=C/CC/C(C)=C/CSc1ccc(Cl)cc1C(=O)O | 64.9 µM |  | 86.8 µM | 34.9 µM | 46.9 µM | 31.4 µM | 44.6 µM | 30.8 µM | 34.7 µM | 32.8 µM |  |  |  |  |  |  | 
7 | CC(C)C[C@H](NC(=O)[C@H](CCc1ccccc1)NC(=O)c1ccc2ccccc2n1)B(O)O | > 100 µM |  | 3.09 µM | 0.338 µM | < 0.0338 µM | 0.588 µM | < 0.017 µM | 0.706 µM | 0.52 µM | 4.2 µM |  |  |  |  |  |  | 
8 | CCOC(=O)/C=C1/Nc2cc(F)c(F)cc2NC1=O | > 100 µM |  | > 100 µM | > 100 µM | > 100 µM | > 100 µM | > 100 µM | > 100 µM | > 100 µM | > 100 µM |  |  |  |  |  |  | 
9 | CCOC(=O)c1ccc(NC(NC(=O)CC)(C(F)(F)F)C(F)(F)F)cc1 | > 100 µM | > 100 µM |  | > 100 µM | > 100 µM | > 100 µM | > 100 µM | > 100 µM | > 100 µM | > 100 µM |  |  |  |  |  |  | 
10 | CC(=O)N1C(OCc2ccccc2)CCN1c1ccccc1 (stereo not given) | > 10 µM | > 10 µM | > 10 µM | > 10 µM | > 10 µM | > 10 µM | > 10 µM | > 10 µM | > 10 µM |  |  |  |  |  |  |  | 
11 | COc1ccc(/C=C/C(c2cc(OC)c(OC)c(OC)c2)n2cncn2)cc1O (stereo not given) | > 100 µM | > 100 µM | > 100 µM | > 100 µM | > 100 µM |  |  |  | > 100 µM | > 100 µM | 0.033 µM | 0.032 µM | > 100 µM | 7.05 µM | 3.47 µM | 0.0394 µM | 0.0508 µM
12 | COC(=O)C(N)CCCC(N)C(=O)NC(C)C(=O)NC(CCC(=O)NCCCNc1ccc([N+](=O)[O-])c2[nH]c3ccccc3c(=O)c12)C(N)=O (stereo not given) | 22.6 µM | 33.9 µM | 20.2 µM | 17.9 µM | 14.7 µM | 13.8 µM | 25.1 µM | 16.6 µM | 15 µM |  |  |  |  |  |  |  | 
13 | CCCC1C(C#N)(C#N)C(C#N)=C(N)C1(C)C(C)=O (stereo not given) | > 100 µM | > 100 µM |  | > 100 µM | > 100 µM | > 100 µM | > 100 µM | > 100 µM | > 100 µM | > 100 µM |  |  |  |  |  |  | 
14 | C=CCc1cccc2cc(C(=O)Nc3nc(C45CC6CC(CC(C6)C4)C5)cs3)c(=O)oc12 | > 100 µM |  | 51.5 µM | 59.2 µM | > 100 µM | 25.2 µM | 22.5 µM | 54.6 µM | > 100 µM | > 100 µM |  |  |  |  |  |  | 
15 | COc1cc(C)cc(OC)c1/C=C/C(=O)O | > 100 µM | > 100 µM | > 100 µM | > 100 µM | > 100 µM | > 100 µM | > 100 µM | > 100 µM | > 100 µM |  |  |  |  |  |  |  | 
16 | CN(/N=C/c1ccc(Cl)c(Cl)c1)C1=NCCN1 | > 100 µM | 90.8 µM | > 100 µM | > 100 µM | 54.4 µM |  |  | 34.2 µM | > 100 µM | 49.8 µM |  |  |  |  |  |  | 
17 | CC(C)(CN1CCCCC1)C(=O)/C=C/c1c(Cl)cccc1Cl |  | 1.44 µM | 4.98 µM | 2.84 µM | 2.29 µM | 2.27 µM | 2.39 µM | 2.89 µM | 2.28 µM | 5.31 µM |  |  |  |  |  |  | 
18 | C/C(NC(=O)c1ccccc1)=C(/C(=O)c1ccccc1)[C@@H]1OC(C)(C)O[C@@H]1[C@H]1COC(C)(C)O1 | 52.8 µM |  | > 100 µM | 93.9 µM | 55.1 µM | 30.1 µM | > 100 µM | 39.7 µM | > 100 µM | > 100 µM |  |  |  |  |  |  | 
